The target of data set [1] is aldose reductase of kidney (Canis lupus familiaris, UniProt A0A8I3P2L6). The data set can be described thus: Inhibitory effect on aldose reductase of kidney. The data set is classed as biochemical, dog. To be noted: read-out: Degree of inhibition for aldose reductase (%); for inhibition at 10 µM: concentration 1x10^-5 M; for inhibition at 2 µM: concentration 2x10^-6 M; for inhibition at 5 µM: concentration 5x10^-6 M; for inhibition at 1 µM: concentration 1x10^-6 M; for inhibition at 0.2 µM: concentration 2x10^-7 M; for inhibition at 0.5 µM: concentration 5x10^-7 M. As to the method:
Medulla of kidney of dog was homogenized with 10mM phosphoric acid buffer (pH 7.0) containing 2mM dithiothreitol in an amount of four times the volume of kidney medulla and subjected to centrifugation. The supernatant liquid was purified by affinity chromatography, gel filtration and chromatofocusing to obtain electrophoretically homogeneous aldose reductase. 0.05 ml of 3mM NADPH, 0.1 ml of DL-glyceraldehyde and 0.04 ml of distilled water were added to 0.8 ml of 0.1M phosphoric acid buffer (pH 6.2) and left to stand at 25°C for 3 minutes. Then, 0.01 ml of the aldose reductase solution was added thereto to start reaction and decreasing of absorbance of 340 nm was measured at 25°C with time. Amount of enzyme which consumes 1 µmole of NADPH for 1 minute was taken as 1 unit.

For data set [2], the system named is kidney. The experiment in a line: Toxicity to kidney determined by blood examination. The data set is classed as in vivo, mice. Conditions: conclusion from the blood examinations (a) and (b). As to the method:
After one day from administration, the mice were fasted (only water was given) and after lapse of 18 hours, blood was collected and serum was obtained therefrom. Glucose, urea nitrogen and creatinine in the serum were examined using FUJI Dry Chemslide (manufactured by Fuji Photo Film Co., Ltd.). […]
Thereafter, the mice were fasted (with giving only water) and after lapse of 18 hours, blood was collected and serum was obtained therefrom. Contents of glucose, urea nitrogen and creatinine in serum were obtained using FUJI Dry Chemslide. The results were shown by average value for eight mice.

Data set [3] concerns the target T1, aldose reductase of rabbit lens (Oryctolagus cuniculus, UniProt P15122).
T1 construct: to obtain electrophoretically homogeneous aldose reductase; from tissue; host or cells: rabbit lens
The experiment in a line: Inhibitory effect on aldose reductase of lens. It counts as biochemical. To be noted: read-out: Degree of inhibition for aldose reductase (%); for inhibition at 1 µM: concentration 1x10^-6 M; for inhibition at 0.5 µM: concentration 5x10^-7 M. As to the method:
0.05 ml of 3mM NADPH, 0.1 ml of DL-glyceraldehyde and 0.04 ml of distilled water were added to 0.8 ml of 0.1M phosphoric acid buffer (pH 6.2) and left to stand at 25°C for 3 minutes. Then, 0.01 ml of the aldose reductase solution was added thereto to start reaction and decreasing of absorbance of 340 nm was measured at 25°C with time. Amount of enzyme which consumes 1 µmole of NADPH for 1 minute was taken as 1 unit.
Enzyme activity was measured under the same conditions as in the above measurement of aldose reductase activity except that 0.04 ml of aqueous solution of inhibitory substance in various concentrations was added in place of 0.04 ml of distilled water and degree of inhibition was calculated from comparison of the enzyme activity with the enzyme activity obtained in the absence of inhibitor. (1) OPQ, (2) methyl OPQ, (3) 1-methylpropyl OPQ, (4) 2-methylpropyl OPQ, (5) 2-carbamoylethyl OPQ, (6) hydroxymethyl OPQ, (7) 2-methylthioethyl OPQ, (8) 2-carboxyethyl OPQ, (9) 4-hydroxybenzyl OPQ, (10) 1-methylethyl OPQ, and (11) benzyl OPQ were used as inhibition substances and (12) PQQ was used as control.
Lens of rabbit was homogenized with 10mM phosphoric acid buffer (pH 7.0) containing 2mM dithiothreitol in an amount of two times the volume of the lens and subjected to centrifugation. The supernatant liquid was purified by affinity chromatography, gel filtration and chromatofocusing to obtain electrophoretically homogeneous aldose reductase. Using (1) OPQ, (2) 1-methylpropyl OPQ, (3) 2-methylpropyl OPQ, (4) hydroxymethyl OPQ, and (5) 1-methylethyl OPQ as inhibition substances, degree of inhibition of these substances for aldose reductase of rabbit lens was examined in the same manner in Example 32.

A short description of data set [4]: Solubility of the isolated compound, described in words. It counts as physicochemical. Conditions: for solubility in water / solubility under neutral and alkaline conditions: water.

By inhibition is commonly meant the share of the control response that was lost under treatment. Take `O=C(O)c1cc(C(=O)O)c2c(n1)C(=O)C(=O)c1cc(C(=O)O)[nH]c1-2` [PQQ, pyrroloquinolinequinone, reference compound]: in data set [1], the inhibition at 10 µM came out at 64.4%, the inhibition at 2 µM amounted to 17.3% and the inhibition at 5 µM turned out to be 42.8%. In data set [2], the toxicity to kidney entry is listed as “showed toxicity to kidney”.

In the case of `CC(C)Cc1nc2c3nc(C(=O)O)cc(C(=O)O)c3c3[nH]c(C(=O)O)cc3c2o1` [2-Methylpropyl OPQ, 5-(2-Methylpropyl)-2,8,10-tricarboxy-1H-oxazo[5,4-h]-pyrrolo[2,3-f]quinoline], in data set [3], the inhibition at 1 µM was determined as 69.8% and the inhibition at 0.5 µM came to 57.2%. Besides, the inhibition at 0.1 µM in data set [3] (concentration 1x10^-7 M) stood at 27%. In addition, in data set [3] (concentration 2x10^-7 M), the inhibition at 0.2 µM turned out to be 34.9%. In addition, in data set [4], the “solubility in acetone and diethyl ether” value is on record as “did not dissolve”; the “solubility in lower alcohols” value is “dissolved”; the solubility in water entry is reported as “easily soluble”; the “solubility under neutral and alkaline conditions” value is on record as “very easily soluble”. For the same compound, in data set [1], the inhibition at 1 µM was 63.1%, the inhibition at 0.2 µM is 30.2% and the inhibition at 0.5 µM amounted to 44.1%.

For the compound `O=C(O)c1cc(C(=O)O)c2c(n1)c1nc(Cc3ccc(O)cc3)oc1c1cc(C(=O)O)[nH]c12` [4-Hydroxybenzyl OPQ, 5-(4-Hydroxybenzyl)-2,8,10-tricarboxy-1H-oxazo[5,4-h]-pyrrolo[2,3-f]quinoline], in data set [4], the “solubility in acetone and diethyl ether” value was “did not dissolve”; the “solubility in lower alcohols” value is “dissolved”; the solubility in water result was “easily soluble”; the “solubility under neutral and alkaline conditions” value is “especially soluble”. In data set [1], the inhibition at 10 µM amounted to 89%, the inhibition at 1 µM came to 38.6%, the inhibition at 2 µM amounted to 49.4% and the inhibition at 5 µM is 71.3%.

Turning to `NC(=O)CCc1nc2c3nc(C(=O)O)cc(C(=O)O)c3c3[nH]c(C(=O)O)cc3c2o1` [2-Carbamoylethyl OPQ, 5-(2-Carbamoylethyl)-2,8,10-tricarboxy-1H-oxazo[5,4-h]-pyrrolo[2,3-f]quinoline], in data set [4], the “solubility in acetone and diethyl ether” value is on record as “did not dissolve”; the “solubility in lower alcohols” value is on record as “dissolved”; the solubility in water result is “easily soluble”; the “solubility under neutral and alkaline conditions” value is given as “very easily soluble”. For the same compound, in data set [1], the inhibition at 1 µM is 59.6%, the inhibition at 2 µM is 75.7%, the inhibition at 5 µM was determined as 89.1% and the inhibition at 0.5 µM was found to be 44.7%.

Take `O=C(O)CCc1nc2c3nc(C(=O)O)cc(C(=O)O)c3c3[nH]c(C(=O)O)cc3c2o1` [2-Carboxyethyl OPQ, 5-(2-Carboxyethyl)-2,8,10-tricarboxy-1H-oxazo[5,4-h]-pyrrolo[2,3-f]quinoline]: in data set [4], the “solubility in acetone and diethyl ether” value is recorded as “did not dissolve”; the “solubility in lower alcohols” value is given as “dissolved”; the solubility in water result is on record as “easily soluble”; the “solubility under neutral and alkaline conditions” value is “very easily soluble”. Besides, in data set [1], the inhibition at 10 µM came out at 58.5%, the inhibition at 1 µM worked out at 48%, the inhibition at 2 µM was 49.9% and the inhibition at 5 µM stood at 55%. Further, the inhibition at 0.5 µM in data set [1] came to 22.5%.

With `Cc1nc2c3nc(C(=O)O)cc(C(=O)O)c3c3[nH]c(C(=O)O)cc3c2o1` [Methyl OPQ, 5-Methyl-2,8,10-tricarboxy-1H-oxazo[5,4-h]-pyrrolo-[2,3-f]quinoline], in data set [4], the “solubility in acetone and diethyl ether” value is “did not dissolve”; the “solubility in lower alcohols” value is on record as “dissolved”; the solubility in water entry was “easily soluble”; the “solubility under neutral and alkaline conditions” value is on record as “very easily soluble”. Also, in data set [1], the inhibition at 1 µM turned out to be 92.1%, the inhibition at 0.2 µM is 31.4% and the inhibition at 0.5 µM was found to be 73.6%. The inhibition at 0.1 µM in data set [1] (concentration 1x10^-7 M) was 25%.

Turning to `CC(C)c1nc2c3nc(C(=O)O)cc(C(=O)O)c3c3[nH]c(C(=O)O)cc3c2o1` [1-Methylethyl OPQ, 5-(1-Methylethyl)-2,8,10-tricarboxy-1H-oxazo[5,4-h]-pyrrolo[2,3-f]quinoline], in data set [3], the inhibition at 1 µM turned out to be 43.3% and the inhibition at 0.5 µM was 33%. Also, the inhibition at 2 µM in data set [3] (concentration 2x10^-6 M) was 51.9%. The inhibition at 5 µM in data set [3] (concentration 5x10^-6 M) amounted to 68.4%. In data set [4], the “solubility in acetone and diethyl ether” value is “did not dissolve”; the “solubility in lower alcohols” value is on record as “dissolved”; the solubility in water entry is listed as “easily soluble”; the “solubility under neutral and alkaline conditions” value was “very easily soluble”. Also, in data set [1], the inhibition at 1 µM stood at 30.5%, the inhibition at 2 µM worked out at 48.1% and the inhibition at 5 µM came out at 68.2%.

(Values after EP0429333B1, “Process for producing oxazopyrroloquinolines, novel oxazopyrroloquinolines, and use of oxazopyrroloquinolines” (priority 1989, dated 1991).)
